Assay results: patent US20090137499A1, “BENZYLPHENYL GLUCOPYRANOSIDE DERIVATIVE” (priority 2006, published 2009)

biological target: T1, human SGLT2 (Homo sapiens, UniProt P31639); assay: Determination of SGLT2 inhibiting activity using human SGLT2 expressing cell ([14C]-α-methyl-D-glucopyranoside uptake); format: cell-based; details: HEK-SGLT2 cells, 1 mM [14C]-α-methyl-D-glucopyranoside, 37° C., 30 min
T1 construct: expressed in transfected cells
T1 sequence (P31639 1-672): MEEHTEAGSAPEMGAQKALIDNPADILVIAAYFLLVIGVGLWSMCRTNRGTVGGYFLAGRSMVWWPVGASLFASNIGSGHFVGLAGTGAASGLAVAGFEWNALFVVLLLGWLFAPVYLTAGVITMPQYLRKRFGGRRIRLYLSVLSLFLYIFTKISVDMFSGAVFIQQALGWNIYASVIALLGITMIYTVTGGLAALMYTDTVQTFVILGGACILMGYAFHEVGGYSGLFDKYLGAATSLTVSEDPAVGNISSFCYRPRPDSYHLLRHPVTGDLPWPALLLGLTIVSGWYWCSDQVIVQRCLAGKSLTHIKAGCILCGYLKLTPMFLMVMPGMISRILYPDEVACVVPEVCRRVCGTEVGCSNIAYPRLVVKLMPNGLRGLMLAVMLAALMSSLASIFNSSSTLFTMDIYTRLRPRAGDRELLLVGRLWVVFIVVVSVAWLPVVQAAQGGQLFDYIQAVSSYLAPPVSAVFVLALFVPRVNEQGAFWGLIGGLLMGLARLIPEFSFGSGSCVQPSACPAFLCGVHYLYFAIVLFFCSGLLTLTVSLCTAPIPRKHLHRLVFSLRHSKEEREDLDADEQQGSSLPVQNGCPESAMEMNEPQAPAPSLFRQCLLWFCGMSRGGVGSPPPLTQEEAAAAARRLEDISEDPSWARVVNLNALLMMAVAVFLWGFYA
Method: Determination of SGLT2 Inhibiting Activity Using Human SGLT2 Expressing Cell
1) Preparation of Vector Expressing Human SGLT2 cDNA in Animal Cell
Amplification was performed by PCR using human SGLT2 cDNA clone (Origene: Clone Number, TC303267; GenBank accession number, NM 003041) as a template. The sense oligonucleotide primer for PCR was 5′-[…]-3′ (Primer 3: SEQ ID NO: 3 in the sequence listing),
and the antisense oligonucleotide primer was 5′-[…]-3′ (Primer 4: SEQ ID NO: 4 in the sequence listing). The PCR product was subjected to agarose electrophoresis, then a target DNA fragment was recovered from a single band corresponding to 2037 bases, digested with restriction enzymes HindIII and XhoI, and introduced into the HindIII/XhoI site of vector pCMV-Script (Stratagene) to obtain SGLT2 expressing plasmid pCMV-SGLT2. A HindIII/XhoI fragment was excised from pCMV-SGLT2 and introduced into the BamHI/XhoI site of pENTR1A (Gateway, Invitrogen) to prepare pENTR-SGLT2. Retrovirus vector pLPCX (Clontech) into which Gateway Vector Conversion System Cassette A (Invitrogen) was introduced was used as the destination plasmid to prepare SGLT2 expressing retrovirus vector pLPCX-SGLT2.
2) Establishment of Human SGLT2 Expressing Cell
The retrovirus pLPCX-SGLT2 obtained in 1) was transfected into integrin αvβ3 expressing HEK-293 cells, the cells were treated with antibiotic G418 (brand name, Geneticin: Invitrogen) and puromycin (Clontech) to obtain HEK-SGLT2 cells stably expressing the target vector having resistance. The stably expressing cells were cultured and maintained in DMEM medium containing […] G418, […] puromycin, 3 mM KGT-1075, and 10% FBS.
3) Determination of SGLT2 Inhibiting Activity
HEK-SGLT2 cells were suspended at a density of 10^6 cells/mL in DMEM medium containing 250 mg/mil G418, 1 mg/ml puromycin, and 10% FBS, and 100 μL was seeded in each well of a type 1 collagen-coated 96-well culture plate (Corning). On the following day, the medium was replaced with a sugar uptake buffer (10 mM HEPES [pH 7.5], 5 mM Tris-HCl [pH 7.5], 140 mM NaCl, 2 mM KCl, 1 mM CaCl2, 1 mM MgCl2), and the cells were cultured with 1 mM [^14C]-α-methyl-D-glucopyranoside (0.1 mCi) and a test compound at 37° C. for 30 min, and then washed 3 times with a washing buffer (10 mM HEPES (pH 7.5), 5 mM Tris-HCl (pH 7.5), 140 mM choline chloride, 2 mM KCl, 1 mM CaCl2, 1 mM MgCl2). 100 μL of liquid scintillation cocktail (brand name, Supermix: Perkin-Elmer) was added to each well of the 96-well plate and stirred for 10 min, and then radioactivity was determined with micro β (Perkin-Elmer), a type of liquid scintillation counter. The value obtained by deducting the radioactivity in the presence of an excess amount of an SGLT2 inhibiting compound as the background from each measured value was taken as the sugar uptake activity, the inhibition rate (%) was calculated from the control sugar uptake activity obtained without using a test compound and the sugar uptake activity obtained using a test compound having a predetermined concentration, and the concentrations of the test compound at which the sugar uptake activity was inhibited by 50% were assessed.

Row | IC50 | Compound
1 | 9.4 nM | COc1ccc(Cc2ccc(CO)cc2O[C@@H]2O[C@H]([C@@H](C)O)[C@@H](O)[C@H](O)[C@H]2O)cc1 [Example 9, 2-(4-Methoxybenzyl)-5-hydroxymethylphenyl 7-deoxy-D-glycero-β-D-gluco-heptopyranoside]
2 | 12 nM | C[C@@H](O)[C@H]1O[C@@H](Oc2cc(CO)ccc2Cc2ccc(OC3CC3)cc2)[C@H](O)[C@@H](O)[C@@H]1O [Example 60, 2-(4-Cyclopropyloxybenzyl)-5-hydroxymethylphenyl 7-deoxy-D-glycero-β-D-gluco-heptopyranoside]
3 | 32 nM | C[C@@H](O)[C@H]1O[C@@H](Oc2cc(CO)ccc2Cc2ccc(C3CC3)cc2)[C@H](O)[C@@H](O)[C@@H]1O [Example 62, 2-(4-Cyclopropylbenzyl)-5-hydroxymethylphenyl 7-deoxy-D-glycero-β-D-gluco-heptopyranoside]
4 | 34 nM | C[C@@H](O)[C@H]1O[C@@H](Oc2cc(CO)cc(F)c2Cc2ccc(OC3CC3)cc2)[C@H](O)[C@@H](O)[C@@H]1O [Example 63, 2-(4-Cyclopropoxybenzyl)-3-fluoro-5-hydroxymethyl-phenyl 7-deoxy-D-glycero-β-D-gluco-heptopyranoside]
5 | 23 nM | CSc1ccc(Cc2ccc(CO)cc2O[C@@H]2O[C@H]([C@@H](C)O)[C@@H](O)[C@H](O)[C@H]2O)cc1 [Example 66, 5-Hydroxymethyl-2-(4-methylsulfanylbenzyl)phenyl 7-deoxy-D-glycero-β-D-gluco-heptopyranoside]
6 | 30 nM | CCc1ccc(Cc2ccc(CCO)cc2O[C@@H]2O[C@H]([C@@H](C)O)[C@@H](O)[C@H](O)[C@H]2O)cc1 [Example 67, 2-(4-Ethylbenzyl)-5-(2-hydroxyethyl)phenyl 7-deoxy-D-glycero-β-D-gluco-heptopyranoside]
7 | 12 nM | C[C@@H](O)[C@H]1O[C@@H](Oc2cc(CO)ccc2Cc2ccc(CCCO)cc2)[C@H](O)[C@@H](O)[C@@H]1O [Example 68, 5-Hydroxymethyl-2-[4-(3-hydroxypropyl)benzyl]phenyl 7-deoxy-D-glycero-β-D-gluco-heptopyranoside]
8 | 11 nM | COc1ccc(Cc2ccc(CO)cc2O[C@@H]2O[C@H]([C@@H](C)O)[C@@H](O)[C@H](O)[C@H]2O)cc1F [Example 78, 2-(3-Fluoro-4-methoxybenzyl)-5-hydroxymethylphenyl 7-deoxy-D-glycero-β-D-gluco-heptopyranoside]

The remaining lines, values behind:

Row | Compound | IC50
9 | COc1ccc(Cc2cc(CO)cnc2O[C@@H]2O[C@H]([C@@H](C)O)[C@@H](O)[C@H](O)[C@H]2O)cc1 [Example 38, 3-(4-Methoxybenzyl)-5-hydroxymethylpyridin-2-yl 7-deoxy-D-glycero-β-D-gluco-heptopyranoside] | 17 nM
10 | CCc1ccc(Cc2ccc(N)cc2O[C@@H]2O[C@H](C(C)O)[C@@](C)(O)[C@H](O)[C@H]2O)cc1 (stereo partly drawn) [Example 41, 5-Amino-2-(4-ethylbenzyl)phenyl 4-C-methyl-7-deoxy-glycero-β-D-gluco-heptapyranoside] | 14 nM
11 | COc1ccc(Cc2c(Cl)cccc2O[C@@H]2O[C@H]([C@@H](C)O)[C@@H](O)[C@H](O)[C@H]2O)cc1 [Example 42, 3-Chloro-2-(4-methoxybenzyl)phenyl 7-deoxy-D-glycero-β-D-gluco-heptopyranoside] | 18 nM
12 | COc1ccc(Cc2c(Cl)cc(C)cc2O[C@@H]2O[C@H]([C@@H](C)O)[C@@H](O)[C@H](O)[C@H]2O)cc1 [Example 43, 3-Chloro-5-methyl-2-(4-methoxybenzyl)phenyl 7-deoxy-D-glycero-β-D-gluco-heptopyranoside] | 61 nM
13 | COc1ccc(Cc2c(Cl)cc(CO)cc2O[C@@H]2O[C@H]([C@@H](C)O)[C@@H](O)[C@H](O)[C@H]2O)cc1 [Example 44, 3-Chloro-5-hydroxymethyl-2-(4-methoxybenzyl)phenyl 7-deoxy-D-glycero-β-D-gluco-heptopyranoside] | 10 nM
14 | CCOc1ccc(Cc2c(Cl)cc(CO)cc2O[C@@H]2O[C@H]([C@@H](C)O)[C@@H](O)[C@H](O)[C@H]2O)cc1 [Example 45, 3-Chloro-2-(4-ethoxybenzyl)-5-hydroxymethyl-phenyl 7-deoxy-D-glycero-β-D-gluco-heptopyranoside] | 45 nM
15 | CCOc1ccc(Cc2c(F)cc(CO)cc2O[C@@H]2O[C@H]([C@@H](C)O)[C@@H](O)[C@H](O)[C@H]2O)cc1 [Example 46, 2-(4-Ethoxybenzyl)-3-fluoro-5-hydroxymethyl-phenyl 7-deoxy-D-glycero-β-D-gluco-heptopyranoside] | 16 nM
16 | CCc1ccc(Cc2c(F)cc(CO)cc2O[C@@H]2O[C@H]([C@@H](C)O)[C@@H](O)[C@H](O)[C@H]2O)cc1 [Example 47, 2-(4-Ethylbenzyl)-3-fluoro-5-hydroxymethyl-phenyl 7-deoxy-D-glycero-β-D-gluco-heptopyranoside] | 38 nM
17 | COc1ccc(Cc2c(Cl)cc(CO)cc2O[C@@H]2O[C@H]([C@H](C)O)[C@@H](O)[C@H](O)[C@H]2O)cc1 [Example 57, 3-Chloro-5-hydroxymethyl-2-(4-methoxybenzyl)phenyl 7-deoxy-L-glycero-β-D-gluco-heptopyranoside] | 11 nM
18 | COc1ccc(Cc2c(C)cc(C)cc2O[C@@H]2O[C@H]([C@@H](C)O)[C@@H](O)[C@H](O)[C@H]2O)cc1F [Example 69, 2-(3-Fluoro-4-methoxybenzyl)-3,5-dimethylphenyl 7-deoxy-D-glycero-β-D-gluco-heptopyranoside] | 40 nM
19 | Cc1cc(C)c(Cc2ccc(CCO)cc2)c(O[C@@H]2O[C@H]([C@@H](C)O)[C@@H](O)[C@H](O)[C@H]2O)c1 [Example 70, 2-[4-(2-Hydroxyethyl)benzyl]-3,5-dimethylphenyl 7-deoxy-D-glycero-β-D-gluco-heptopyranoside] | 40 nM
20 | CCCOc1ccc(Cc2c(F)cc(CO)cc2O[C@@H]2O[C@H]([C@@H](C)O)[C@@H](O)[C@H](O)[C@H]2O)cc1 [Example 74, 3-Fluoro-5-hydroxymethyl-2-(4-propoxybenzyl)phenyl 7-deoxy-D-glycero-β-D-gluco-heptopyranoside] | 47 nM
21 | CC(C)Oc1ccc(Cc2c(F)cc(CO)cc2O[C@@H]2O[C@H]([C@@H](C)O)[C@@H](O)[C@H](O)[C@H]2O)cc1 [Example 75, 3-Fluoro-5-hydroxymethyl-2-(4-isopropoxybenzyl)phenyl 7-deoxy-D-glycero-β-D-gluco-heptopyranoside] | 38 nM
22 | COc1ccc(Cc2c(C)cc(C)cc2O[C@@H]2O[C@H]([C@@H](C)O)[C@@H](O)[C@H](O)[C@H]2O)cc1 [Example 77, 3,5-Dimethyl-2-(4-methoxybenzyl)phenyl 7-deoxy-D-glycero-β-D-gluco-heptopyranoside] | 25 nM
23 | COc1ccc(Cc2ccc(CO)cc2O[C@@H]2O[C@H]([C@@H](C)O)[C@@H](O)[C@H](O)[C@H]2O)c(F)c1 [Example 82, 2-(2-Fluoro-4-methoxybenzyl)-5-hydroxymethylphenyl 7-deoxy-D-glycero-β-D-gluco-heptopyranoside] | 9.4 nM
